Test results: publication PMC12037037 (Proceedings of the National Academy of Sciences of the …, 2025)

Experiments:
5-HT2CR = target: T1, 5-HT2CR (Homo sapiens, UniProt P28335); assay: IP1 functional assay (5-HT2CR); type: cell-based; settings: 5-HT2C, IP1, agonist mode
T1 construct: Epics Therapeutics S.A

C57BL/6J mice [1] = assay: Head-twitch response (HTR) assay; type: in vivo; settings: (+)-JRT 1 mg/kg IP pretreatment 15 min + LSD 0.2 mg/kg IP; mean ± SEM
5-HT7 = 5-HT7 (Homo sapiens, UniProt P34969); assay: Functional assay at 5-HT7 (Fig. S4); type: cell-based
Sequence of 5-HT7 (P34969 whole entry): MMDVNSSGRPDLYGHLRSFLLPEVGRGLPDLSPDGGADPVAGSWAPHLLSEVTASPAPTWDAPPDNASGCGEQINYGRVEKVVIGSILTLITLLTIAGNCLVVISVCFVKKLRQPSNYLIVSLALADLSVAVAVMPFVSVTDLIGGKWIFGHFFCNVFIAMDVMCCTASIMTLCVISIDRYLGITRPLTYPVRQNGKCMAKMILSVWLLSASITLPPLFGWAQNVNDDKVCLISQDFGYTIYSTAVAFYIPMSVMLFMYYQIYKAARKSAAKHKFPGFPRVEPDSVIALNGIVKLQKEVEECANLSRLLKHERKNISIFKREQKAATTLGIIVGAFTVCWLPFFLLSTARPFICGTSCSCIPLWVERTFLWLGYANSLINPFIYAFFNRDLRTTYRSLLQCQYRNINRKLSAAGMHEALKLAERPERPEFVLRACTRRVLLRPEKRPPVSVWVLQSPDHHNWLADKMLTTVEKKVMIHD
From the text: (§1) Figure S4. […] Radioligand binding (RLB) (top) and IP1 functional assays (bottom) for 5-HT1A (A), 5-HT5a (B), 5-HT6 (C), and 5-HT7 (D) receptors. Agonist or antagonist mode is indicated in the title of each graph. Data represent the mean ± SEM of 2 technical replicates.
(§2) 5-carboxamidotryptamine; ND = not determined for incomplete curves.
(§3) (1 picture or pasted object on this page, not shown here)

C57BL/6J mice [2] = assay: 4-odor discrimination and reversal after unpredictable mild stress; type: in vivo
[3] = Pharmacokinetics studies (plasma and brain); type: in vivo, rats
[4] = target: wild type human 5-HT2A receptor (psychLight2, PSYLI2 cells) (Homo sapiens, UniProt P28223); assay: PsychLight assay, wild type; type: cell-based
Sequence of wild type human 5-HT2A receptor (psychLight2, PSYLI2 cells) (P28223 with tags, fused parts or gaps): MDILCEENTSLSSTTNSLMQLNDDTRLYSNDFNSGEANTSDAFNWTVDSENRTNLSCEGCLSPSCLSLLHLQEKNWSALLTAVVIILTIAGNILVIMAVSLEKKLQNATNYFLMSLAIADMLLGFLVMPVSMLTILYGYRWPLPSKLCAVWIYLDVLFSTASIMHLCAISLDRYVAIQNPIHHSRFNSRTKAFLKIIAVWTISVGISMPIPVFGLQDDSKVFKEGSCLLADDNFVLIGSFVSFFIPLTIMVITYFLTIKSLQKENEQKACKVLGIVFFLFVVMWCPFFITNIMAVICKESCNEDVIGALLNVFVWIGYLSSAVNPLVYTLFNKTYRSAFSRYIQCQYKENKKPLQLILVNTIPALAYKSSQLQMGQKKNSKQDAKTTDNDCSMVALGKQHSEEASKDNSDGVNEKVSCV
Sequence of wild type human 5-HT2A receptor (psychLight2, PSYLI2 cells) (P42212 with tags, fused parts or gaps partner): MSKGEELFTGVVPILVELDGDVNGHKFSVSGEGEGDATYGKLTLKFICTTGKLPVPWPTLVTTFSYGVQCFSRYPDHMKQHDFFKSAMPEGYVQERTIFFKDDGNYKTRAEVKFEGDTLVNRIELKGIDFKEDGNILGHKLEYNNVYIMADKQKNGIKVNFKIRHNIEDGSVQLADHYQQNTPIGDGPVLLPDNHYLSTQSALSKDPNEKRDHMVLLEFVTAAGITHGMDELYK

[5] = ADME assays (Eurofins, ChemPartner); type: in vitro ADME; settings: overall statement
Description: as §3
Comparison Between WT and S242A5.46 psychLight Variants. Activity in WT and S242A5.46 mutant forms of PsychLight was quantified by deriving ligand activity ratios (log(Emax/EC50)). […]
and (+)-JRT were fit to a log(agonist) vs. response (three parameters) curve. The Emax/EC50 analysis was performed as previously described in detail by others (16):
Response = Basal + E!"# − Basal where Emax and Basal represent the top and bottom asymptotes of the curve fit, respectively; EC50 represents the concentration that gives a response halfway between Emax and Basal; and Log[A] is the logarithm of the agonist concentration. Then, ligand activity ratios, log(Emax/EC50) were calculated for each test ligand and statistical comparisons made between each other and between genotypes using a two-way ANOVA and significant interaction effects followed by a Šídák's multiple comparisons test.
ADME and hERG Inhbition Assays. […]
Briefly, 96 well plates were coated with poly-D-lysine and approximately 15,000 cells/well. […] Images were analyzed using the Simple Neurite Tracer and Sholl analysis plug-ins for ImageJ Fiji (version 1.51N). […] All images were taken and analyzed by an experimenter blinded to treatment conditions.
Spinogenesis Assays Using Cultured Rat Cortical Neurons. […] Images were analyzed using ImageJ Fiji (version 1.51N). […]

5-HT5A = 5-HT5A (Homo sapiens, UniProt P47898); assay: Functional assay at 5-HT5A (Fig. S4); type: cell-based
Sequence of 5-HT5A (P47898 whole entry): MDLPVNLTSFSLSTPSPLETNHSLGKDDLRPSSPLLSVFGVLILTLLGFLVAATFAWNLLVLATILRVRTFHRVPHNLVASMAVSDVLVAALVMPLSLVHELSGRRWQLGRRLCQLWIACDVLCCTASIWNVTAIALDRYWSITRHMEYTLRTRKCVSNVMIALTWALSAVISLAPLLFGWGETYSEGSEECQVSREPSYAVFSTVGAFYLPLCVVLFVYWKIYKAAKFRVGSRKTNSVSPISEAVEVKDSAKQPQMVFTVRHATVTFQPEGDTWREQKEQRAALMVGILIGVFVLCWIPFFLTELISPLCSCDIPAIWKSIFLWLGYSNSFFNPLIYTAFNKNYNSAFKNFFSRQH
From the text: as §1, §2, §3

[6] = test system: E18 rat embryonic cortical neurons (DIV18-19); assay: Spinogenesis assay using cultured rat cortical neurons; type: cell-based
C57BL/6J mice [7] = assay: Novelty-induced locomotion; type: in vivo; settings: 1 mg/kg

T1 sequence (P28335 33-458): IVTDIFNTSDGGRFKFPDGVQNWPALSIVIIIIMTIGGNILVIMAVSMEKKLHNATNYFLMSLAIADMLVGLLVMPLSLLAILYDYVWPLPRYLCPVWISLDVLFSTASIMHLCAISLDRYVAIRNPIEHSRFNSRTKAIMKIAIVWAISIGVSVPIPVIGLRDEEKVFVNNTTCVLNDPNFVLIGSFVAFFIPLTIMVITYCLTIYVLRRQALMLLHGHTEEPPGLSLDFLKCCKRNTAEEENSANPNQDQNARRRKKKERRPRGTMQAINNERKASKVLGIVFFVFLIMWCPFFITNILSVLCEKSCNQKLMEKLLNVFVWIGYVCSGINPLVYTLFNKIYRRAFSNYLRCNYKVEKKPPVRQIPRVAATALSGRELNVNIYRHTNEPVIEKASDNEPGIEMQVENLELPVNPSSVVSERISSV

With `CCN(CC)C(=O)[C@@H]1C=C2c3cccc4ccn(c34)C[C@H]2N(C)C1` [(+)-JRT] the Emax (5-HT2CR) was 89%, the “Head-twitches over 20 min (Figure 5A Antagonism)” value (C57BL/6J mice [1]) was 1.500 ± 0.3450 and the “Functional activity at 5-HT7, agonist mode” value (5-HT7) was “agonist or partial agonist”. The “Discrimination (Figure 7B)” value (C57BL/6J mice [2]; (+)-JRT 1 mg/kg IP + Stress (UMS), VEH + Stress 20.20 ± 1.843, VEH – Stress 21.27 ± 2.516) was 20.50 ± 2.212, the “Reversal (Figure 7B)” value (C57BL/6J mice [2]; (+)-JRT 1 mg/kg IP + Stress (UMS), VEH + Stress 21.00 ± 2.385, VEH – Stress 13.64 ± 1.744) was 12.40 ± 1.118 and the “Total Trials (Figure S17)” value (C57BL/6J mice [2]; Stress + (+)-JRT 1 mg/kg IP, Stress 41.20 ± 3.972, VEH 34.91 ± 2.661) was 32.90 ± 2.479. For the same molecule, the “Presence in rat brain and plasma within 2 h” value ([3]; 1 mg/kg IP dose) was “nearly absent”, the “Levels in plasma or brain at 4 h” value ([3]; 1 mg/kg IP, (+)-JRT fumarate, rats) was “below the limit of quantification” and the “Brain concentration relative to the Ki at the 5-HT2AR” value ([3]; 1 mg/kg, rat) was ~ 20 fold. The EC50 [4] was 90 nM, the Emax ([4]; read-out: psychLight (WT): EMax) was 33% and the ADME properties [5] was “excellent”. For the same molecule, the “Functional activity at 5-HT5A” value (5-HT5A) was “antagonist”, the “Dendritic spine growth in mature cortical cultures” value ([6]; 1 μM, 24 h, DIV19, compared to vehicle (P < 0.0001) and CLZ (P = 0.0005)) was “promoted dendritic spine growth” and the “Effect of ketanserin (10 μM) pretreatment on compound-induced dendritic spine density” value ([6]; compound 1 μM) was “blocks”. The Effect on locomotion (C57BL/6J mice [7]; novel arena 30 min) was “does not impact locomotion” and the Serotonin syndrome-like responses (C57BL/6J mice [7]; backward walking, forepaw treading, hind limb abduction, low body posture, Straub tail, tremor) was “does not impact locomotion (SI Appendix, Fig. S10) or produce any serotonin syndrome-like responses”.
